In article PMC12856293 (The Journal of Biological Chemistry, 2025):

Key:
TrzSMsmeg = target: T1, TrzSMsmeg (Mycolicibacterium smegmatis, UniProt A0QUG4); format: biochemical
T1 construct: gene MSMEG_2198

TyzAMtb = target: T2, TyzAMtb (Mycobacterium tuberculosis, UniProt P95232)
T2 construct: gene Rv2336
T2 sequence (P95232 1-322): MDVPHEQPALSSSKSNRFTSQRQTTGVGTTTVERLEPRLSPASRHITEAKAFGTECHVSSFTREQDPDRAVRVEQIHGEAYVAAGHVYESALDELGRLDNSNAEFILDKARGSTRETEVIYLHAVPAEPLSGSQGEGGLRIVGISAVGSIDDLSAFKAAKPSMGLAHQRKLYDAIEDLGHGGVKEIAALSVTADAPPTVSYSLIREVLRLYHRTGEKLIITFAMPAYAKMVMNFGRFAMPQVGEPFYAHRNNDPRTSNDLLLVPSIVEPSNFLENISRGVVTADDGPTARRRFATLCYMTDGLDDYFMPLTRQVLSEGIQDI

T1 sequence (A0QUG4 1-723): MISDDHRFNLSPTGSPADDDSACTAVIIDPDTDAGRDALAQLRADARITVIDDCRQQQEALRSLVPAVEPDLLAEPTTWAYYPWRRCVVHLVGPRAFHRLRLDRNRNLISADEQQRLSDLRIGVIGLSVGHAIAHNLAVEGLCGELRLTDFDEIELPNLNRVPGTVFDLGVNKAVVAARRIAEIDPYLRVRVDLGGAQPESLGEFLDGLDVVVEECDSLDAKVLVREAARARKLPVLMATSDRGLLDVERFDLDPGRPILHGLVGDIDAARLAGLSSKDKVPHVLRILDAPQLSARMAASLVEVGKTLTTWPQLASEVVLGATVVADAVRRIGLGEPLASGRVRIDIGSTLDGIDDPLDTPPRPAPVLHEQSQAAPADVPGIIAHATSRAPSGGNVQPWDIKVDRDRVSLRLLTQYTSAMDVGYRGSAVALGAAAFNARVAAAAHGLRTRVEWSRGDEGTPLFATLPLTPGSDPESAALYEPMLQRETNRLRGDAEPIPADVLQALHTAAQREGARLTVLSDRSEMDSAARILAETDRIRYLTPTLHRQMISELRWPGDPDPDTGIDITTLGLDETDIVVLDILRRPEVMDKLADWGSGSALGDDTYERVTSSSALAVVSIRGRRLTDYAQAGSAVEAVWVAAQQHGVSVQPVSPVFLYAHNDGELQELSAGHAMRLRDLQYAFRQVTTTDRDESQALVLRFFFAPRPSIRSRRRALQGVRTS

SMILES	LC-QTOF product detection, coupled with TrzAMtb (TrzSMsmeg)	LC-QTOF endpoint product detection (TyzAMtb)
Nc1ncnc2c1ncn2[C@@H]1O[C@H](COP(=O)(O)OP(=O)(O)OP(=O)(O)O)[C@@H](O)[C@H]1O [ATP]	only the N-acyl tryptophan was observed when ATP was omitted from the reaction	–
CCCC(=O)N[C@@H](Cc1c[nH]c2ccccc12)C(=O)O [C4:0-tryptophan]	we detected significant amounts of C4:0-tryptophan, produced by TrzAMtb, and C4:0-tryptazolone	–
CCCCCCCCCCCC(=O)SCCNC(=O)CCNC(=O)[C@H](O)C(C)(C)COP(=O)(O)OP(=O)(O)OC[C@H]1O[C@@H](n2cnc3c(N)ncnc32)[C@H](O)[C@@H]1OP(=O)(O)O [C12:0-CoA]	–	we detected substantial amounts of C12:0-Tyr, C12:0-tyrazolone
